Among the data in article PMC8286840, “Identifying SARS-CoV-2 antiviral compounds by screening for small molecule inhibitors of Nsp3 papain-like protease” (Biochemical Journal, 2021) are remaining activity values, retold here.

Molecules are shown by their SMILES. Structures can show the parent of a compound that is named as a salt. Where two headings read alike, the source gives them in different places. Where a SMILES comes first, the peptide text is derived from it. The star is where a group is joined. Cbz = O=C(OCc1ccccc1)*

Experiment [1] concerns the target T1, SARS-CoV-2 PLpro (nsp3 1564–1878) (Severe acute respiratory syndrome coronavirus 2, UniProt P0DTD1). Description: biochemical. On the set-up: FRET-quenched peptide (Pro3) cleavage by PLpro, 10 min pre-incubation, slope over 20 min, normalised to no-compound control. Conditions: low concentration screen, read-out: % of control remaining.
Experiment [2] concerns the target T1, SARS-CoV-2 PLpro (nsp3 1564–1878). Description: biochemical. Conditions: high concentration screen, read-out: % of control remaining. On the set-up: FRET-quenched peptide (Pro3) cleavage by PLpro, 10 min pre-incubation, slope over 20 min, normalised to no-compound control.

On to `CCc1cnc(N2CCC(c3nc(COc4ccc(-n5cnnn5)cc4)cs3)CC2)nc1` [MBX-2982], for which the remaining activity at 1.25 µM in experiment [1] (Well no.=8381) worked out at 102%. Besides, in experiment [2] (Well no.=8381), the remaining activity at 3.75 µM stood at 99.5%.

With `Cn1cc(/C=C/C(=O)c2cccc(F)c2)cc1/C=C/C(=O)NO` [MC1568], the remaining activity at 1.25 µM in experiment [1] (Well no.=4905) is 102%. In experiment [2] (Well no.=4905), the remaining activity at 3.75 µM was found to be 101%.

On to `CC1=NN(c2ccccc2)C(=O)C1` [MCI-186], for which the remaining activity at 1.25 µM in experiment [1] (Well no.=3901) turned out to be 103%. Further, in experiment [2] (Well no.=3901), the remaining activity at 3.75 µM amounted to 103%.

Take `COc1ccc(C(=O)/C=C/c2cc(OC)c(OC)c(OC)c2)cc1OC` [MD2-IN-1]: in experiment [1] (Well no.=8739), the remaining activity at 1.25 µM is 100%. Further, the remaining activity at 3.75 µM in experiment [2] (Well no.=8739) is 95.8%.

With `CCCCCCn1c(O)c(N=NC(=O)c2ccccc2)c2ccccc21` [MDA 19], in experiment [1] (Well no.=7099), the remaining activity at 1.25 µM is 103%. For the same compound, the remaining activity at 3.75 µM in experiment [2] (Well no.=7099) worked out at 103%.

As for `O=C1C(=O)N(Cc2ccc(Cl)c(Cl)c2)c2ccccc21` [MDK83190], the remaining activity at 1.25 µM was determined as 101% in experiment [1] (Well no.=6404) and 94.6% in experiment [1] (Well no.=8130). Also, the remaining activity at 3.75 µM in experiment [2] (Well no.=6404) was 99.4%; in experiment [2] (Well no.=8130), 90%.

Regarding `c1ccc([C@@H]2CCC[C@@H]2NC2=NCCCCCCCCCCC2)cc1` [MDL 12,330A hydrochloride], the remaining activity at 1.25 µM in experiment [1] (Well no.=993) is 103%. In addition, the remaining activity at 3.75 µM in experiment [2] (Well no.=993) was 101%.

For `NCCC1CCCC(CCN)N1` (stereo not drawn) [MDL 26,630 trihydrochloride], in experiment [1] (Well no.=945), the remaining activity at 1.25 µM was determined as 103%. In addition, the remaining activity at 3.75 µM in experiment [2] (Well no.=945) stood at 104%.

Turning to `O=C(O)/C(=C/c1c(C(=O)O)[nH]c2cc(Cl)cc(Cl)c12)c1ccccc1` [MDL 105,519], the remaining activity at 1.25 µM in experiment [1] (Well no.=803) turned out to be 95%. Besides, in experiment [2] (Well no.=803), the remaining activity at 3.75 µM is 93%.

With `CC(C)[C@H](NC(=O)OCc1ccccc1)C(=O)N[C@H](C=O)Cc1ccccc1` [MDL 28170] (Cbz-Val-Phe-aldehyde), in experiment [1] (Well no.=790), the remaining activity at 1.25 µM stood at 106%. The remaining activity at 3.75 µM in experiment [2] (Well no.=790) was found to be 105%.

Turning to `CNC(=O)c1ccc(N2C(=S)N(c3ccc(C#N)c(C(F)(F)F)c3)C(=O)C2(C)C)cc1F` [MDV3100 (Enzalutamide)], the remaining activity at 1.25 µM in experiment [1] (Well no.=4759) was 102%. For the same compound, the remaining activity at 3.75 µM in experiment [2] (Well no.=4759) worked out at 104%.

Turning to `CC(C)(CCCCCCCCCCC(C)(C)CC(=O)O)CC(=O)O` [MEDICA 16], in experiment [1] (Well no.=5805), the remaining activity at 1.25 µM was 91.5%. The remaining activity at 3.75 µM in experiment [2] (Well no.=5805) is 91.6%.

`N#C/C(=C(/N)Sc1ccc(N)cc1)c1ccccc1C(F)(F)F` [MEK1/2 Inhibitor]: in experiment [1] (Well no.=2562), the remaining activity at 1.25 µM is 94.4%. Besides, in experiment [2] (Well no.=2562), the remaining activity at 3.75 µM worked out at 96.8%.

Take `O=C1C(Cl)=C(N2C(=O)CCC2=O)C(=O)c2ccccc21` [MEK Inhibitor II]: the remaining activity at 1.25 µM in experiment [1] (Well no.=2560) came to 98%. In addition, the remaining activity at 3.75 µM in experiment [2] (Well no.=2560) is 98.5%.

Consider `CC[N+](CC)(CC)CCOc1ccc(/C=C/c2ccccc2)cc1` [MG 624], for which the remaining activity at 1.25 µM in experiment [1] (Well no.=972) came to 100%. For the same compound, the remaining activity at 3.75 µM in experiment [2] (Well no.=972) was determined as 101%.

As for `CC(C)C[C@@H](C=O)NC(=O)[C@H](CC(C)C)NC(=O)[C@H](CC(C)C)NC(=O)OCc1ccccc1` [MG-132] (Cbz-Leu-Leu-Leu-aldehyde), the remaining activity at 1.25 µM in experiment [1] (Well no.=8436) was found to be 96.8%. Also, the remaining activity at 3.75 µM in experiment [2] (Well no.=8436) was found to be 97.5%.

As for `Cn1nc(C(F)(F)F)cc1-c1cnc(N2CCc3cc(S(=O)(=O)Nc4c(F)cc(Cl)cc4F)cc(N4CCCC4=O)c32)nc1` [MGAT2-IN-1], the remaining activity at 1.25 µM in experiment [1] (Well no.=8422) came out at 94.8%. For the same compound, the remaining activity at 3.75 µM in experiment [2] (Well no.=8422) is 93.1%.

As for `COc1cc(C(O)CO)ccc1OS(=O)(=O)O` (stereo not drawn) [MHPG sulfate potassium], in experiment [1] (Well no.=710), the remaining activity at 1.25 µM was 93%. Besides, in experiment [2] (Well no.=710), the remaining activity at 3.75 µM came out at 90.8%.

Turning to `CC(C)(C)C[C@@H]1N[C@@H](C(=O)N[C@H]2CC[C@H](O)CC2)[C@H](c2cccc(Cl)c2F)[C@]12C(=O)Nc1cc(Cl)ccc12` [MI-773], the values for the remaining activity at 1.25 µM in experiment [1] (Well no.=6488) and in experiment [1] (Well no.=8278) were 96.1% and 102%, respectively. The remaining activity at 3.75 µM worked out at 93% in experiment [2] (Well no.=6488) and 97.3% in experiment [2] (Well no.=8278).

With `CN1CCN(c2ccc3nc(-c4cc(C(C)(C)C)c(OCCCC(=O)NCCCN=[N+]=[N-])c(C(C)(C)C)c4)[nH]c3c2)CC1` [MIR96-IN-1], in experiment [1] (Well no.=7014), the remaining activity at 1.25 µM amounted to 94.6%. Moreover, in experiment [2] (Well no.=7014), the remaining activity at 3.75 µM is 81.9%.

With `O=C(ON1C(=O)CCC1=O)N1CCN(C(c2ccc(Cl)cc2)c2ccc(Cl)cc2)CC1` [MJN110], in experiment [1] (Well no.=5560), the remaining activity at 1.25 µM turned out to be 97.4%. The remaining activity at 3.75 µM in experiment [2] (Well no.=5560) was 100%.

As to `O=C(CCCc1ccc(-c2ccccc2F)cc1)Nc1ccc(O)cc1` [MK2a Inhibitor], the remaining activity at 1.25 µM in experiment [1] (Well no.=2548) was found to be 94.2%. Also, the remaining activity at 3.75 µM in experiment [2] (Well no.=2548) was 102%.

As to `Cn1ncnc1COc1nn2c(-c3c(F)cccc3F)nnc2cc1C1CCC1` [MK-0343], the remaining activity at 1.25 µM in experiment [1] (Well no.=5828) came to 101%. For the same compound, the remaining activity at 3.75 µM in experiment [2] (Well no.=5828) was found to be 102%.

Consider `O=C1O[C@]2(CC[C@H](C(=O)Nc3ccn(-c4ccccc4F)n3)CC2)c2cnccc21` [MK-0557], for which the remaining activity at 1.25 µM in experiment [1] (Well no.=6987) was 104%. In addition, the remaining activity at 3.75 µM in experiment [2] (Well no.=6987) was 104%.

Regarding `CN(C)C(=O)CCSC(SCCC(=O)O)c1cccc(/C=C/c2ccc3ccc(Cl)cc3n2)c1` (stereo not drawn) [MK-571 (sodium salt)], the remaining activity at 1.25 µM in experiment [1] (Well no.=7859) came out at 91.6%. For the same compound, the remaining activity at 3.75 µM in experiment [2] (Well no.=7859) was 91.2%.

Turning to `O=C(O)CC[C@H]1CC[C@@](c2cc(F)ccc2F)(S(=O)(=O)c2ccc(Cl)cc2)CC1` [MK-0752], the remaining activity at 1.25 µM in experiment [1] (Well no.=4639) was 97.6%. Also, the remaining activity at 3.75 µM in experiment [2] (Well no.=4639) came out at 99.5%.

Turning to `CO[C@@H]1COCC[C@@H]1N[C@@H]1CC[C@@](C(=O)N2CCc3ncc(C(F)(F)F)cc3C2)(C(C)C)C1` [MK-0812 (Succinate)], in experiment [1] (Well no.=8321), the remaining activity at 1.25 µM is 97.5%. Also, the remaining activity at 3.75 µM in experiment [2] (Well no.=8321) turned out to be 97.9%.

For `CC(C)c1ccc2c(c1)c(SC(C)(C)C)c(CC(C)(C)C(=O)O)n2Cc1ccc(Cl)cc1` [MK-886 (L-663,536)], in experiment [1] (Well no.=8678), the remaining activity at 1.25 µM was 96.7%. In addition, the remaining activity at 3.75 µM in experiment [2] (Well no.=8678) was 94.2%.

On to `CC(C)c1ccc2c(c1)c(SC(C)(C)C)c(CC(C)(C)C(=O)O)n2Cc1ccc(Cl)cc1` [MK-886], for which the remaining activity at 1.25 µM in experiment [1] (Well no.=1018) worked out at 105%. Also, the remaining activity at 3.75 µM in experiment [2] (Well no.=1018) came out at 104%.

In the case of `CN1CC[C@]2(CCN3CCc4c(oc5ccccc45)[C@@H]3C2)N(C)C1=O` [MK-912], in experiment [1] (Well no.=934), the remaining activity at 1.25 µM was determined as 101%. In addition, the remaining activity at 3.75 µM in experiment [2] (Well no.=934) was found to be 104%.

In the case of `O=C(N[C@@H]1CC[C@@H](c2cccc(F)c2F)CN(CC(F)(F)F)C1=O)N1CCC(n2c(=O)[nH]c3ncccc32)CC1` [MK-0974], in experiment [1] (Well no.=7709), the remaining activity at 1.25 µM turned out to be 102%. Also, the remaining activity at 3.75 µM in experiment [2] (Well no.=7709) was 108%.
